In assay [1] the target is T1, α1A-AR (Homo sapiens, UniProt P35348).
T1 sequence (P35348 1-466): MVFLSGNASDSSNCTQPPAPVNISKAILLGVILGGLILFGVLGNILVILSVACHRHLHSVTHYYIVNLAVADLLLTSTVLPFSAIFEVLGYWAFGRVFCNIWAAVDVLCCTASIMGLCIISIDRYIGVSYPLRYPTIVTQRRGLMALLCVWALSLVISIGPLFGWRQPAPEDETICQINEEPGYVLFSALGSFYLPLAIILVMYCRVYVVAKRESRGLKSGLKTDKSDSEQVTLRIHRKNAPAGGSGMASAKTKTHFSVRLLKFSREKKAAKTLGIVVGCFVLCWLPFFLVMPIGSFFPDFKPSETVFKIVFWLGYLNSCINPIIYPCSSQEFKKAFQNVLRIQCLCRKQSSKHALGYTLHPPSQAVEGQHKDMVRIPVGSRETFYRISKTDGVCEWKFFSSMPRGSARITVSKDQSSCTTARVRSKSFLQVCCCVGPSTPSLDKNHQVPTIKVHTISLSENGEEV
The experiment in a line: IP accumulation (IP-One HTRF) in α1A-AR transduced HEK-293/EBNA cells. The class given is cell-based. Also noted: expressed in transfected cells; host or cells: HEK-293/EBNA (baculovirus transduction, NaBu induction). As to conditions: α1A-AR transduced HEK-293/EBNA; Iso up to 10 mM. The protocol:
Prior to experiments, cells were transduced with baculovirus strains designed for transient expression of α1A-AR or aldehyde oxidase (negative control). This was performed by incubating cells with virus (MOI 100–150) for 3 to 4 h, followed by exchange into fresh serum free growth medium supplemented with 4 mM sodium butyrate (NaBu). Cells were grown for another 14 to 18 h and then examined for agonist-evoked responses in transient Ca^2+ release, IP accumulation or pERK activation assays. The surface receptor expression density was determined by flow cytometry via immunofluorescence labeling of an N-terminal HA epitope tag on the receptor and radioligand binding in partially purified membranes.
(§1) After 10–20 minutes, 10 μL of agonist was added followed by incubation for 5 to 30 minutes. Stimulation was stopped by addition of lysis buffer. Second messenger levels were determined using a homogeneous immunoassay method with time-resolved FRET detection (IP-One HTRF, Cisbio International) according to protocols provided by the supplier. Sample fluorescence was measured with a Nanoscan plate reader (IOM, Berlin). Each data point represents the average of quadruplicate determinations and each experiment was performed at least two times independently.
(In TR-FRET formats the signal depends on donor and acceptor labels being close together.)

The target in assay [2] is T1, α1A-AR. The experiment in a line: LC-MS detection of IP1, IP2 and IP3 in α1A-AR transduced HEK-293/EBNA cells. The class given is cell-based. Further details: expressed in transfected cells; host or cells: HEK-293/EBNA (baculovirus transduction, NaBu induction). The settings on record: Iso up to 10 mM. The protocol:
Virally transduced HEK-293/EBNA cells were resuspended in growth medium and seeded in poly-D-lysine coated 96-well black plates at a density of 100,000 cells/0.1 mL per well, Cells were allowed to attach for 2 hours at 37°C in a humidified atmosphere of 95% air and 5% CO2. After that, the medium was replaced with agonist solution in assay buffer (20 mM HEPES, 10 mM glucose, 1.8 mM CaCl2, 0.5 mM MgSO4, in HBSS 1X buffer, 50 mM LiCl) and cells were incubated at 37°C for 30 min. Stimulation was stopped by exchange of assay buffer with lysis buffer (100 μL 0.1N HCl/MeOH), and lysis proceeded for 30 min at 4°C. Cellular levels of inositol phosphates were determined using a Thermo LC-MS detection system following a published protocol. Chromatography was performed employing a BioBasic column AX (50 × 2.1 mm, Thermo). The mobile phase consisted of solvent A: 10 mM ammonium acetate, pH 6 in 30/70 acetonitrile/water, and solvent B: 1 mM ammonium acetate, pH 11 in 30/70 acetonitrile/water. A gradient solvent system was used starting with 0% solvent B, and analytes were eluted by increasing solvent B to 100% over 3 min. Each data point represents the average of triplicate determinations and each experiment was performed at least three times independently.

A further assay concerns the target β3-AR. As to conditions: in presence of GTP; cited from earlier work.
Assay [3] has as its target T1, α1A-AR. Kind of assay: IP accumulation in α1A-AR_CHO stable cells. The class given is cell-based. Also noted: expressed in transfected cells. The settings on record: Iso up to 1 mM. How it is done: as §1
IP1, IP2, and IP3 levels were determined via LC-MS. Plots are representative of three independent experiments with each data point being the average of triplicates.

The Ki is the dissociation constant of the complex between target and ligand, obtained from inhibition or displacement.

As to `CC(C)NCC(O)c1ccc(O)c(O)c1` (stereo not shown) [Iso, isoproterenol], the IP accumulation result at α1A-AR [1] is “no significant accumulation of IP was detected”; at α1A-AR [3], “no IP accumulation could be detected”. For the same compound, the “cellular levels of inositol phosphates IP1, IP2 and IP3” value at α1A-AR [2] is reported as “no significant changes”. The inhibition constant (Ki) on β3-AR is 1.6 µM.

The values are drawn from paper PMC4301629 (PLoS ONE, 2015).
